Experimental data published in US8501911B2, “Methods of reducing inflammation and mucus hypersecretion” (Biomarck Pharmaceuticals, Ltd, priority 1999, dated 2013).

Key:
Format in all cases: cell-based, human
PP2A = assay: Protein phosphatase activity assay in NHBE cells, PP2A; settings: 8-Br-cGMP as low as 0.1 μM
Procedure: (§1) To confirm further activation of PP2A by PKG in NHBE cells, cytosolic PP1 and PP2A activities were determined after exposure of the cells to 8-Br-cGMP. […] Accordingly, this PP2A activity appeared critical for mucin secretion to occur; when PKG-induced MARCKS dephosphorylation was blocked by okadaic acid or fostriecin, the secretory response to PKC/PKG activation or UTP stimulation was ameliorated (see Results-I-6-1 and Results-I-6-2, above).
(§2) Protein Phosphatase Activity Assay—PP1 and PP2A activities were measured using a protein phosphatase assay system (Life Technologies, Inc.) as known in the art with slight modification. Huang et al., Adv. Exp. Med. Biol. 396, 209-215 (1996). Briefly, NHBE cells were treated with 8-Br-cGMP or medium alone for 5 min. Cells were then scraped into a lysis buffer (50 mM Tris-HCl (pH 7.4), 0.1% beta-mecaptoethanol, 0.1 mM EDTA, 1 mM benaamidine, 10 μg/ml pepstatin A, 10 μg/ml leupeptin) and disrupted by sonication for 20 s at 4° C. […] Released ^32Pi was counted by scintillation. The protein concentration of each sample was determined by the Bradford assay. PP2A activity was expressed as the sample total phosphatase activity minus the activity remaining in the presence of 1 nM okadaic acid. PP1 activity was expressed as the difference between the activities remaining in the presence of 1 nM and 1 μM okadaic acid, respectively. […]

PP1 = assay: Protein phosphatase activity assay in NHBE cells, PP1; settings: after exposure to 8-Br-cGMP
Procedure: as §1, §2

MARCKS protein = MARCKS protein level in NHBE cells (Western blot); settings: TNF-α 10 ng/ml 4 h
Procedure: (§3) NHBE cells were treated with the antisense or the control oligonucleotide for 3 days and then stimulated with PMA (100 nM)+8-Br-cGMP (1 μM) for 15 min. Mucin secretion was analyzed by ELISA. Total RNA and protein were isolated from treated cells. MARCKS mRNA was assessed by Northern hybridization, and protein was assessed by Western blot. […] In this regard, MARCKS mRNA as a percent of control is shown in the following results which are designated as Results-I-3A-2:
(§4) Antisense Oligonucleotides—MARCKS antisense oligonucleotide and its corresponding control oligonucleotide were synthesized at Biognostik GmbH (Gottingen, Germany). […] Cells were then incubated with secretagogues, and mucin secretion was measured by ELISA. […] MARCKS mRNA was assessed by Northern hybridization according to conventional procedures using human MARCKS cDNA as a probe. MARCKS protein level was determined by Western blot using purified anti-MARCKS IgG1 (clone 2F12) as the primary detection antibody.
(§5) NHBE cells were incubated with 10 ng/ml human recombinant TNF-α or medium alone for 4 hrs, then stimulated with PMA (100 nM)+8-Br-cGMP (1 μM) for 15 min, or UTP (0.1 mM) for 2 hrs. Secreted mucin was collected and measured by ELISA. […] MARCKS mRNA was assessed by Northern hybridization, and protein by the Western Blot technique. […]

MARCKS mRNA = MARCKS mRNA level in NHBE cells (Northern hybridization); settings: TNF-α 10 ng/ml 4 h, then PMA 100 nM+8-Br-cGMP 1 μM 15 min
Procedure: as §3, §4, §5

Compound	Increase of PP2A activity (PP2A)	PP2A activity (PP2A; 5 min, baseline 0.1) [nmol/mnin/mg proteins]	PP1 activity (PP1)	Increase in MARCKS protein vs medium only (Western blot) (MARCKS protein)	MARCKS protein level relative to control (MARCKS protein; then PMA 100 nM+8-Br-cGMP 1 μM 15 min) [%]	MARCKS mRNA level relative to control (MARCKS mRNA) [%]
Nc1nc2c(nc(Br)n2[C@@H]2O[C@@H]3COP(=O)(O)O[C@H]3[C@H]2O)c(=O)[nH]1 [8-Br-cGMP]	approximately 3 fold	0.3	unchanged			
TNF-α				three- to four-fold increase	352	115
